Measured values taken from the NIST ThermoML archive (doi:10.1016/j.jct.2018.12.031).
Numbers after ± are expanded uncertainties.

Test: xn = mol fraction of the nth substance listed
Details: 100 kPa, Liquid; for speed of sound: Frequency=3 MHz, Linear variable-path acoustic interferometer; for mass density: Pycnometric method

N#Cc1ccccc1 [benzonitrile] + C=C(C)C(=O)OC
Details	mass density, 308.15 K [kg/m3]	mass density, 313.15 K [kg/m3]	mass density, 318.15 K [kg/m3]	speed of sound, 308.15 K [m/s]	speed of sound, 313.15 K [m/s]	speed of sound, 318.15 K [m/s]
x1 = 0.0652	931.43 ± 1	925.87 ± 1	920.31 ± 1	1173.8 ± 1.6	1157 ± 1.6	1140.3 ± 1.6
x1 = 0.1303	936.55 ± 1	931.16 ± 1	925.77 ± 1	1193.9 ± 1.6	1177.3 ± 1.6	1160.8 ± 1.6
x1 = 0.1922	941.29 ± 1	936.06 ± 1	930.83 ± 1	1211.7 ± 1.6	1195.3 ± 1.6	1179 ± 1.6
x1 = 0.271	947.15 ± 1	942.12 ± 1	937.08 ± 1	1232.7 ± 1.6	1216.5 ± 1.6	1200 ± 1.6
x1 = 0.3371	951.93 ± 1	947.05 ± 1	942.18 ± 1	1249.6 ± 1.6	1233.2 ± 1.6	1216.8 ± 1.6
x1 = 0.4174	957.57 ± 1	952.87 ± 1	948.18 ± 1	1268.8 ± 1.6	1252.4 ± 1.6	1236 ± 1.6
x1 = 0.4872	962.33 ± 1	957.78 ± 1	953.23 ± 1	1284.7 ± 1.7	1268.5 ± 1.6	1251.9 ± 1.6
x1 = 0.5689	967.73 ± 1	963.35 ± 1	958.96 ± 1	1302.9 ± 1.7	1286.5 ± 1.7	1270.3 ± 1.6
x1 = 0.6398	972.27 ± 1	968.02 ± 1	963.77 ± 1	1317.9 ± 1.7	1302.2 ± 1.7	1286 ± 1.6
x1 = 0.7089	976.56 ± 1	972.44 ± 1	968.31 ± 1	1332 ± 1.7	1316.5 ± 1.7	1300.9 ± 1.7
x1 = 0.7767	980.63 ± 1	976.63 ± 1	972.61 ± 1	1345.5 ± 1.7	1330.5 ± 1.7	1315 ± 1.7
x1 = 0.8571	985.27 ± 1	981.4 ± 1	977.51 ± 1	1360.6 ± 1.7	1345.5 ± 1.7	1330.8 ± 1.7
x1 = 0.9252	989.03 ± 1	985.26 ± 1	981.48 ± 1	1372 ± 1.7	1357.2 ± 1.7	1342.4 ± 1.7
x1 = 1	992.98 ± 1	989.31 ± 1	985.64 ± 1	1384 ± 1.7	1368.2 ± 1.7	1352.9 ± 1.7
